Assays:
[1] = system: F. nucleatum mixed with E. coli and P. mirabilis; type: cell-based
Fusobacterium nucleatum = details: 48 hours, cultures of Table 4
[2] = system: B. fragilis mixed with E. coli and P. mirabilis; type: cell-based
[3] = system: P. levii mixed with E. coli and P. mirabilis; type: cell-based
[4] = system: C. perfringens mixed with E. coli and P. mirabilis; type: cell-based
[5] = system: P. anaerobius mixed with E. coli and P. mirabilis; type: cell-based
[6] = system: Peptostreptococcus anaerobius; details: 48 hours, cultures of Table 4

SMILES: [N-]=[N+]=[N-] [Azide, sodium azide]
- Lowest concentration of azide in the tube that successfully separated the anaerobe [1]: 0.1 mg/mL
- Concentration of azide at which swarming is inhibited (Proteus mirabilis): above 0.1 mg/ml
- Level of growth (below visible turbidity) (Fusobacterium nucleatum): less than 10^7 CFU/ml
- Lowest concentration of azide in the tube that successfully separated the anaerobe [2]: 0.2 mg/mL
- Concentration of azide that inhibited growth in anoxic broth (Escherichia coli): ≤ 0.1 mg/mL
- Lowest concentration of azide in the tube that successfully separated the anaerobe [3]: 0.1 mg/mL
- Lowest concentration of azide in the tube that successfully separated the anaerobe [4]: 0.1 mg/mL
- Lowest concentration of azide in the tube that successfully separated the anaerobe [5]: 0.1 mg/mL
- Level of growth (below visible turbidity) [6]: less than 10^7 CFU/ml

— patent US7374905B2, “Medium composition, method and device for selectively enhancing the isolation of anaerobic microorganisms contained in a mixed sample with facultative microorganisms” (Oxyrase, Inc., priority 2000, dated 2008)
